The test system of one assay is A549 cells. The experiment in a line: in vitro antiproliferation assay, A549 (lung). It counts as cell-based. The essentials:
(§1)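 Standard in vitro antiproliferation assays on tumour cell lines, including A549 and H1299 (both lung); IC50 values determined.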

For a further assay, the system named is H1299 cells. The experiment in a line: in vitro antiproliferation assay, H1299 (lung). In kind it is cell-based. The essentials:
as §1

[1] abbreviates: Homo sapiens, IC50 class against A549 (lung) tumor cells.
Setting [2] is: Homo sapiens, NCI-H1299, IC50 class against H1299 (lung) tumor cells.

On to `COc1cc(Nc2ncc(F)c(Nc3ccc4c(c3)OCCO4)n2)c(OC)cc1Cl` [compound 1049], for which the IC50 in the assay with A549 cells (IC50 class against A549 (lung) tumor cells) and with H1299 cells (IC50 class against H1299 (lung) tumor cells) was no more than 20 µM throughout.

For the compound `COc1c(C)cc(Nc2ncc(F)c(Nc3cccc(Nc4ncc[nH]4)c3)n2)cc1C` [compound 1050], the IC50 in the assay on A549 cells (setting [1]) and in the assay with H1299 cells (setting [2]) was no more than 20 µM in each case.

For the compound `COc1ccc(Nc2ncc(F)c(Nc3cccc(Nc4ncc[nH]4)c3)n2)cc1F` [compound 1051], the IC50 in the assay with A549 cells (setting [1]) and in the assay on H1299 cells (setting [2]) was no more than 20 µM throughout.

Regarding `Cc1cc(C)cc(Nc2ncc(F)c(Nc3cccc(Nc4ncc[nH]4)c3)n2)c1` [compound 1052], the half-inhibitory concentration (IC50) with A549 cells (setting [1]) and in the assay on H1299 cells (setting [2]) was no more than 20 µM each time.

As to `COc1cc(Nc2ncc(F)c(Nc3cccc(Nc4ncc[nH]4)c3)n2)cc(OC)c1` [compound 1053], the IC50 in the assay on A549 cells (setting [1]) and in the assay with H1299 cells (setting [2]) was no more than 20 µM in each case.

As for `Fc1cnc(Nc2cccc(N3CCOCC3)c2)nc1Nc1cccc(Nc2ncc[nH]2)c1` [compound 1054], the IC50 in the assay on A549 cells (setting [1]) and in the assay with H1299 cells (setting [2]) was no more than 20 µM throughout.

Regarding `CCOC(=O)N1CCN(c2cccc(Nc3ncc(F)c(Nc4cccc(Nc5ncc[nH]5)c4)n3)c2)CC1` [compound 1055], the IC50 in the assay on A549 cells (setting [1]) and in the assay on H1299 cells (setting [2]) was greater than 20 µM each time.

Turning to `CN1CCN(c2ccc(Nc3ncc(F)c(Nc4cccc(Nc5ncc[nH]5)c4)n3)cc2)CC1` [compound 1056], the IC50 in the assay on A549 cells (setting [1]) and in the assay with H1299 cells (setting [2]) was greater than 20 µM throughout.

As to `COC(=O)N1CCN(c2ccc(Nc3ncc(F)c(Nc4cccc(Nc5ncc[nH]5)c4)n3)cc2)CC1` [compound 1057], the 50% inhibitory concentration (IC50) in the assay on A549 cells (setting [1]) and in the assay with H1299 cells (setting [2]) was greater than 20 µM throughout.

In the case of `CC(=O)N1CCN(c2ccc(Nc3ncc(F)c(Nc4cccc(Nc5ncc[nH]5)c4)n3)cc2)CC1` [compound 1058], the IC50 in the assay on A549 cells (setting [1]) and with H1299 cells (setting [2]) was greater than 20 µM in each case.

Consider `CC(=O)N1CCN(c2cccc(Nc3ncc(F)c(Nc4cccc(Nc5ncc[nH]5)c4)n3)c2)CC1` [compound 1059], for which the IC50 in the assay with A549 cells (setting [1]) and with H1299 cells (setting [2]) was greater than 20 µM each time.

On to `COc1cccc(Nc2ncc(F)c(Nc3ccc4c(c3)NC(=O)CO4)n2)c1C` [compound 1062], for which the IC50 in the assay on A549 cells (A549 (lung) cells) and with H1299 cells (H1299 (lung) cells) was no more than 20 µM each time.

Take `Cc1c(O)cccc1Nc1ncc(F)c(Nc2ccc3c(c2)NC(=O)CO3)n1` [compound 1063]: the IC50 with A549 cells (A549 (lung) cells) and in the assay on H1299 cells (H1299 (lung) cells) was no more than 20 µM each time.

`Cc1c(O)cccc1Nc1ncc(F)c(Nc2ccc3c(c2)NC(=O)C(C)(C)O3)n1` [compound 1064]: the IC50 in the assay with A549 cells (A549 (lung) cells) and in the assay on H1299 cells (H1299 (lung) cells) was no more than 20 µM throughout.

For `COc1cccc(Nc2ncc(F)c(Nc3ccc4c(c3)NC(=O)C(C)(C)O4)n2)c1C` [compound 1065], the IC50 was no more than 20 µM in the assay with A549 cells (A549 (lung) cells) and greater than 20 µM in the assay with H1299 cells (H1299 (lung) cells).

Turning to `CCCn1ncc2cc(Nc3ncc(F)c(Nc4ccc(OC)c(Cl)c4)n3)ccc21` [compound 1074], the IC50 with A549 cells (A549 (lung) cells) and in the assay with H1299 cells (H1299 (lung) cells) was no more than 20 µM in each case.

As for `CCCn1ncc2cc(Nc3ncc(F)c(Nc4ccc(Cl)c(Cl)c4)n3)ccc21` [compound 1075], the concentration for half-maximal inhibition (IC50) in the assay with A549 cells (A549 (lung) cells) and in the assay on H1299 cells (H1299 (lung) cells) was greater than 20 µM each time.

In the case of `CCCn1ncc2cc(Nc3ncc(F)c(Nc4ccc5c(c4)NC(=O)C(C)(C)O5)n3)ccc21` [compound 1076], the IC50 with A549 cells (A549 (lung) cells) and in the assay on H1299 cells (H1299 (lung) cells) was no more than 20 µM in each case.

As for `CCCn1ncc2ccc(Nc3ncc(F)c(Nc4ccc(F)c(OC)c4)n3)cc21` [compound 1077], the IC50 in the assay on A549 cells (A549 (lung) cells) and in the assay with H1299 cells (H1299 (lung) cells) was no more than 20 µM in each case.

Take `CCCn1ncc2ccc(Nc3ncc(F)c(Nc4ccc5c(c4)NC(=O)C(C)(C)O5)n3)cc21` [compound 1080]: the IC50 in the assay on A549 cells (A549 (lung) cells) and in the assay on H1299 cells (H1299 (lung) cells) was no more than 20 µM throughout.

`CCCCn1ncc2cc(Nc3ncc(F)c(Nc4ccc(OC)c(Cl)c4)n3)ccc21` [compound 1082]: the IC50 in the assay on A549 cells (A549 (lung) cells) was no more than 20 µM; in the assay on H1299 cells (H1299 (lung) cells), greater than 20 µM.

On to `CCCCn1ncc2cc(Nc3ncc(F)c(Nc4ccc(Cl)c(Cl)c4)n3)ccc21` [compound 1083], for which the IC50 with A549 cells (A549 (lung) cells) and in the assay with H1299 cells (H1299 (lung) cells) was no more than 20 µM in each case.

In the case of `CCCCn1ncc2cc(Nc3ncc(F)c(Nc4ccc5c(c4)NC(=O)C(C)(C)O5)n3)ccc21` [compound 1084], the IC50 in the assay with A549 cells (A549 (lung) cells) and in the assay on H1299 cells (H1299 (lung) cells) was no more than 20 µM throughout.

As to `CCCCn1ncc2cc(Nc3ncc(F)c(Nc4ccc(F)c(OC)c4)n3)ccc21` [compound 1085], the IC50 with A549 cells (A549 (lung) cells) and in the assay with H1299 cells (H1299 (lung) cells) was no more than 20 µM throughout.

Regarding `CCCCn1ncc2ccc(Nc3ncc(F)c(Nc4ccc(OC)c(Cl)c4)n3)cc21` [compound 1086], the half-maximal inhibitory concentration (IC50) with A549 cells (A549 (lung) cells) and in the assay on H1299 cells (H1299 (lung) cells) was no more than 20 µM in each case.

With `CCCCn1ncc2ccc(Nc3ncc(F)c(Nc4ccc(Cl)c(Cl)c4)n3)cc21` [compound 1087], the IC50 with A549 cells (A549 (lung) cells) and in the assay on H1299 cells (H1299 (lung) cells) was no more than 20 µM throughout.

As to `CCCCn1ncc2ccc(Nc3ncc(F)c(Nc4ccc5c(c4)NC(=O)C(C)(C)O5)n3)cc21` [compound 1088], the IC50 with A549 cells (A549 (lung) cells) and in the assay with H1299 cells (H1299 (lung) cells) was no more than 20 µM in each case.

Turning to `CCCCn1ncc2ccc(Nc3ncc(F)c(Nc4ccc(F)c(OC)c4)n3)cc21` [compound 1089], the IC50 in the assay on A549 cells (A549 (lung) cells) and in the assay on H1299 cells (H1299 (lung) cells) was no more than 20 µM each time.

`COc1ccc(Nc2nc(Nc3ccc4c(cnn4CC4CCCCC4)c3)ncc2F)cc1Cl` [compound 1090]: the IC50 in the assay with A549 cells (A549 (lung) cells) and in the assay with H1299 cells (H1299 (lung) cells) was no more than 20 µM throughout.

Turning to `Fc1cnc(Nc2ccc3c(cnn3CC3CCCCC3)c2)nc1Nc1ccc(Cl)c(Cl)c1` [compound 1091], the IC50 in the assay with A549 cells (A549 (lung) cells) and in the assay with H1299 cells (H1299 (lung) cells) was greater than 20 µM in each case.

In the case of `CC1(C)Oc2ccc(Nc3nc(Nc4ccc5c(cnn5C(C)(C)CC5CCCCC5)c4)ncc3F)cc2NC1=O` [compound 1092], the IC50 with A549 cells (A549 (lung) cells) and with H1299 cells (H1299 (lung) cells) was no more than 20 µM throughout.

For the compound `COc1cc(Nc2nc(Nc3ccc4c(cnn4C(C)(C)CC4CCCCC4)c3)ncc2F)ccc1F` [compound 1093], the IC50 with A549 cells (A549 (lung) cells) and in the assay on H1299 cells (H1299 (lung) cells) was no more than 20 µM in each case.

For the compound `COc1ccc(Nc2nc(Nc3ccc4cnn(C(C)(C)CC5CCCCC5)c4c3)ncc2F)cc1Cl` [compound 1094], the IC50 in the assay with A549 cells (A549 (lung) cells) and in the assay on H1299 cells (H1299 (lung) cells) was no more than 20 µM each time.

For `CC(C)(CC1CCCCC1)n1ncc2ccc(Nc3ncc(F)c(Nc4ccc(Cl)c(Cl)c4)n3)cc21` [compound 1095], the IC50 in the assay with A549 cells (A549 (lung) cells) and in the assay with H1299 cells (H1299 (lung) cells) was no more than 20 µM throughout.

On to `CC1(C)Oc2ccc(Nc3nc(Nc4ccc5cnn(C(C)(C)CC6CCCCC6)c5c4)ncc3F)cc2NC1=O` [compound 1096], for which the IC50 in the assay with A549 cells (A549 (lung) cells) and in the assay on H1299 cells (H1299 (lung) cells) was no more than 20 µM each time.

As for `COc1cc(Nc2nc(Nc3ccc4cnn(C(C)(C)CC5CCCCC5)c4c3)ncc2F)ccc1F` [compound 1097], the IC50 is greater than 20 µM with A549 cells (A549 (lung) cells) and no more than 20 µM in the assay on H1299 cells (H1299 (lung) cells).

`COc1ccc(Nc2nc(Nc3ccc4c(cnn4C(C)(C)CC4CCC4)c3)ncc2F)cc1Cl` [compound 1098]: the figures for the IC50 in the assay on A549 cells (A549 (lung) cells) and in the assay on H1299 cells (H1299 (lung) cells) were greater than 20 µM and no more than 20 µM, respectively.

In the case of `CC(C)(CC1CCC1)n1ncc2cc(Nc3ncc(F)c(Nc4ccc(Cl)c(Cl)c4)n3)ccc21` [compound 1099], the IC50 in the assay on A549 cells (A549 (lung) cells) and in the assay on H1299 cells (H1299 (lung) cells) was no more than 20 µM throughout.

In the case of `CC1(C)Oc2ccc(Nc3nc(Nc4ccc5c(cnn5C(C)(C)CC5CCC5)c4)ncc3F)cc2NC1=O` [compound 1100], the IC50 with A549 cells (A549 (lung) cells) and in the assay on H1299 cells (H1299 (lung) cells) was no more than 20 µM throughout.

With `COc1cc(Nc2nc(Nc3ccc4c(cnn4C(C)(C)CC4CCC4)c3)ncc2F)ccc1F` [compound 1101], the IC50 in the assay on A549 cells (A549 (lung) cells) and in the assay with H1299 cells (H1299 (lung) cells) was no more than 20 µM each time.

(Values after patent US8809341B2, “2,4-pyrimidinediamine compounds and uses as anti-proliferative agents” (Rigel Pharmaceuticals, Inc., priority 2003, dated 2014).)
